Data as given in patent publication US9677051B2, “Erythroid production” (The Common Services Agency, priority 2012, dated 2017).
Entries after “also recorded” stand apart in the source; their conditions may differ.

Columns and labels:
[1] = tested on: human pluripotent stem cells (hPSC); assay: erythroid differentiation culture of hPSCs, overall cell amplification; type: cell-based; details: for cell amplification, combination of GSK3β inhibitor and IBMX: GSK3 inhibitor combined with IBMX; for quality and quantity of erythrocytic cells produced: GSK3β inhibitor day 0 to day 3, used along with Wnt3a; for replacement of recombinant Wnt3A by GSK3β inhibitor: added during day 0 to day 3 of the differentiation protocol; for potency: concentration of GSK3β inhibitor: early stage of differentiation; for overall amplification of differentiating erythropoietic cultures, side by side comparison: Table 1, addition of GSK3β inhibitors, IBMX or both; for expansion in cell number / yield of differentiated cells: prolonged treatment d0 to d5, iPSC or hESC; for rate of cell amplification in the late stage of the method: SR1 1 μM at day 5, SC1 500 nM at day 14 and 250 nM at day 16
Protocol: (§1) The human pluripotent stem cells (hPSC) are maintained undifferentiated in Stempro medium (Life Technologies) on Cellstart (Life Technologies) and passaged approximately every 7 days, depending on their confluence, using the EZpassage tool (Life Technologies).
(§2) For differentiation, confluent hPSC are cut into squares with the EZpassage tool (Life Technologies) and plated at 500×10^3/well on Ultra low adherence six well plates (Corning) in 3 ml/well of Stemline II (Sigma) to allow them to form embryoid bodies (EBs).
(§3) On day 0 in order to induce differentiation, the following cytokines are added: Bone Morphogenic Protein 4 (BMP4) (10 ng/ml), Vascular Endothelium Growth Factor 165 (VEGF) (10 ng/ml), Wnt3A (and/or Wnt5A) (10 ng/ml), ActivinA (5 ng/ml) and Inhibitor VIII (2 μM). GSK3 Inhibitor VIII is a specific name for the Merck product (361549), it is also called AR-A014418 or N-(4-Methoxybenzyl)-N′-(5-nitro-1,3-thiazol-2-yl)urea
(§4) On day 2 of differentiation (48 hours old EBs), a new set of cytokines is added in 0.5 ml/well of Stemline II; BMP4 (20 ng/ml), VEGF (30 ng/ml), Wnt3A (and/or Wnt5A) (10 ng/ml), ActivinA (5 ng/ml), Inhibitor VIII (2 μM), Fibroblast Growth Factor α (FGFα) (10 ng/ml), Stem Cell Factor (SCF) (20 ng/ml) and β-Estradiol (0.4 ng/ml).
(§5) NB: Given cytokine concentrations are always the final concentrations of freshly added cytokines—e.g. when cells are fed rather than undergoing complete media change, we add 0.5 ml of 6× cytokines to 2.5 ml already in well to give final total volume of 3 ml with 1× cytokines.
On day 3 of differentiation the EBs are washed in PBS then dissociated using 1 ml/well TrypleSelect 10λ for 10 minutes at 37° C. After addition of 10 ml of PBS, cells are centrifuged for 3 minutes at 1200 rpm, the supernatant is discarded and the cells are resuspended in 3 ml fresh Stemline II and replated at 200×10^3/well of a regular six well tissue culture plate with the following cytokines: BMP4 (20 ng/ml), VEGF (30 ng/ml), FGFα (10 ng/ml), SCF (30 ng/ml), Insulin-like Growth Factor 2 (IGF2) (10 ng/ml), Thrombopoietin (TPO) (10 ng/ml), Heparin (5 ug/ml), Iso Butyl Methyl Xanthine (IBMX) 50 μM and β-Estradiol (0.4 ng/ml).
On day 5 of differentiation a fresh set of cytokines identical to day 3 is added in 0.5 ml/well of Stemline II such that final concentrations of fresh cytokines are those stated for day 3.
On day 7 of differentiation the cells are harvested, centrifuged 3 minutes at 1200 rpm and resuspended in fresh Stemline II medium supplemented with the same set of cytokines as day 3. If the number of cells is above 500×10^3, it is advisable to split the culture as any drastic depletion or major pH increase of the medium can have major repercussion on the differentiation efficiency.
From day 7 to day 10 of differentiation the cell density should be closely monitored in order to maintain the cell number under 10^6 per ml by adding fully supplemented media and splitting into additional wells if required.
On day 9 of differentiation a half dose of day 3 cytokines is added in 0.5 ml/well of Stemline II such that final concentrations of fresh cytokines are half those stated for day 3.
On day 10 of differentiation, the cells are centrifuged 3 minutes at 1200 rpm then re-plated in erythroid liquid culture conditions. i.e. the cells are plated at a density of 100×10^3 cells/well in 3 ml/well of Stemline II supplemented with the following cytokines: Hydrocortisone 10^−6M, SCF (50 ng/ml), Flt3-Ligand (Flt3L) (16.7 ng/ml), BMP4 (6.7 ng/ml), Interleukin 3 (IL3) (6.7 ng/ml), IL11 (6.7 ng/ml), IBMX (50 μM) and Erythropoietin (EPO) 1.3 U/ml.
From day 10 to day 17 (short protocol) or 21 (extended A phase protocol), the above cytokines are renewed every 2 days, added in 0.5 ml of Stemline II, such that final concentrations of fresh cytokines are those stated for day 10. […]

iPSC = assay: erythroid differentiation culture of iPSC; type: cell-based, human
Protocol: as §1, §2, §3, §4, §5
On day 3 of differentiation the EBs are washed in PBS then dissociated using 1 ml/well TrypleSelect 10λ for 10 minutes at 37° C. […]
(§6) From day 7 to day 10 of differentiation the cell density should be closely monitored in order to maintain the cell number under 10^6 per ml by adding fully supplemented media and splitting into additional wells if required. […]

RC9 = assay: erythroid differentiation culture of hESC line RC9; type: cell-based, human; details: RC9 cell line
Protocol: as §1, §2
as §3, with “N-(4-Methoxybenzyl)-N′-(5-nitro-1,3-thiazol-2-yl)urea […]” for “N-(4-Methoxybenzyl)-N′-(5-nitro-1,3-thiazol-2-yl)urea”
as §6

hESC line H1 = assay: erythroid differentiation culture of hESC line H1; type: cell-based, human; details: H1 ESC differentiation
Protocol: as §1, §2
as §3, with “N-(4-Methoxybenzyl)-N′-(5-nitro-1,3-thiazol-2-yl)urea […]” for “N-(4-Methoxybenzyl)-N′-(5-nitro-1,3-thiazol-2-yl)urea”
as §6

[2] = tested on: genes involved in erythropoiesis; assay: qRT-PCR (Taqman) of genes involved in erythropoiesis in differentiating hPSCs; type: cell-based, human; details: for expression of globin genes and other markers of definitive hematopoiesis (HBA, HBG, HBB, Runx1, Gata2, HoxB4) and erythropoiesis genes (HOXA9, CD36, NFE2) / necessary reduction in pluripotent markers: hiPSC or hESC, Inhibitor VIII and IBMX; for key molecular markers, mRNA expression: iPSC, InhVIII+IBMX, day 0, 10, 17 and 24
Excerpt: At days 0, 10, 17 and 24 the expression of selected genes of interest by the differentiating cells was monitored by qRT-PCR (Taqman) The gene panel was selected to comprise genes known to be expressed at various stages of erythropoiesis in order to evaluate the degree of differentiation of the hPSCs.

differentiating hPSCs = assay: morphology of differentiating cells, Rapid Romanovski staining of cytospin preparations; type: cell-based, human; details: for sturdiness of cells, proneness to lysis: SR1 at day 5, SC1 at days 14 and 16
Protocol: At day 17 onward, the erythroid stage of the cells was determined assessment of morphology after Rapid Romanovski staining of cytospin preparations.

globins = assay: HPLC analysis of globin protein expression profile of differentiated hPSCs; type: cell-based, human; details: full differentiation process in presence of both GSK3β inhibitor and IBMX
Protocol: At day 24, 28 or onward the globin protein expression profile was analysed by High Pressure Liquid Chromatography to evaluate the level of switch from primitive to definitive hematopoiesis.

In the case of `Cc1c[nH]c(-c2cnc(NCCNc3ccc(C#N)cn3)nc2-c2ccc(Cl)cc2Cl)n1` [CHIR99021], the “cell amplification, combination of GSK3β inhibitor and IBMX” value [1] is reported as “synergistic”, the “quality and quantity of erythrocytic cells produced” value [1] is reported as “marked improvement” and the “replacement of recombinant Wnt3A by GSK3β inhibitor” value [1] is reported as “could not reproducibly replace Wnt3a”. For the same molecule, the “effect on hESC versus hiPSC lines” value ([1]; compared to Inhibitor VIII) was “stronger effect on hESC than hiPSC lines” and the “potency: concentration of GSK3β inhibitor” value [1] was 200 nM.

`COc1ccc(CNC(=O)Nc2ncc([N+](=O)[O-])s2)cc1` [Inhibitor VIII, N-(4-methoxybenzyl)-N′-(5-nitro-1,3-thiazol-2-yl)urea] was tested, and the “replacement of Activin A” value (iPSC; iPSC G cell line) was “wasn't observed”, the “cell amplification, combination of GSK3β inhibitor and IBMX” value [1] was “synergistic” and the “quality and quantity of erythrocytic cells produced” value [1] was “marked improvement”. The “overall amplification of differentiating erythropoietic cultures, side by side comparison” value [1] was “inconsistency. Results consistently show a positive effect of Inhibitor VIII and IBMX. The gain provided by a prolonged”, the “total fold amplification of erythroid differentiation culture” value ([1]; absence or presence of inhibitor VIII, hESC lines RC9 and H1, iPS line) was “increases cell numbers in multiple lines” and the “replacement of recombinant Wnt3A by GSK3β inhibitor” value [1] was “could not reproducibly replace Wnt3a”. For the same molecule, the “potency: concentration of GSK3β inhibitor” value [1] was 2000 nM, the “expansion in cell number / yield of differentiated cells” value [1] was “increases the yield of differentiated cells” and the “expansion in cell number / yield of differentiated cells” value ([1]; listed as InhVIII) was “increases the expansion in cell number”. For the same molecule, the “replacement of Activin A” value (RC9) was “wasn't observed”, the “replacement of Activin A” value (hESC line H1) was “can replace Activin A” and the “expression of globin genes and other markers of definitive hematopoiesis (HBA, HBG, HBB, Runx1, Gata2, HoxB4) and erythropoiesis genes (HOXA9, CD36, NFE2)” value [2] was “increase expression”. The “necessary reduction in pluripotent markers” value [2] was “do not affect” and the “key molecular markers, mRNA expression” value [2] was “Increase key molecular markers”.

With `CC(C)n1cnc2c(NCCc3ccc(O)cc3)nc(-c3csc4ccccc34)nc21` [SR1] the “rate of cell amplification in the late stage of the method” value [1] was “greater rate of cell amplification; also recorded: enhances or increases the rate of cell amplification” and the “sturdiness of cells, proneness to lysis” value (differentiating hPSCs) was “sturdier and less prone to lysis; also recorded: more “sturdy” and less prone to lysis”.

In the case of `CC(C)Cn1c(=O)n(C)c(=O)c2[nH]cnc21` [IBMX, 3-isobutyl-1-methylxanthine], the “cell amplification, combination of GSK3β inhibitor and IBMX” value [1] is reported as “synergetic effect on cell amplification”, the “expansion, cumulative fold amplification over time” value ([1]; H1 (hESC) or hiPSC, combinations of GSK3β inhibitors and IBMX) is reported as “further increases expansion” and the “cell numbers in the culture” value ([1]; IBMX added to culture) is reported as “can increase cell numbers”. For the same molecule, the “overall amplification of differentiating erythropoietic cultures, side by side comparison” value [1] was “inconsistency. Results consistently show a positive effect of Inhibitor VIII and IBMX. The gain provided by a prolonged”, the “stage of addition inducing maximum amplification” value ([1]; added to culture medium throughout day 3 and 17) was “most effective” and the “cells morphology and maturation” value (differentiating hPSCs; addition of IBMX and GSK3β inhibitors, compared to the control culture conditions) was “did not have any negative effect”. The “morphological appearance of cells” value (differentiating hPSCs; combination of GSK3β inhibitor and IBMX) was “morphologically more intact and robust”, the HPLC globin profile (globins) was “almost similar to the cells of fetal origin” and the “expression of globin genes and other markers of definitive hematopoiesis (HBA, HBG, HBB, Runx1, Gata2, HoxB4) and erythropoiesis genes (HOXA9, CD36, NFE2)” value [2] was “increase expression”. For the same molecule, the “necessary reduction in pluripotent markers” value [2] was “do not affect” and the “key molecular markers, mRNA expression” value [2] was “Increase key molecular markers”.

With `Cc1cc(Nc2ncc3c(n2)N(C)C(=O)N(c2cc(NC(=O)c4cccc(C(F)(F)F)c4)ccc2C)C3)n(C)n1` [SC1] the “rate of cell amplification in the late stage of the method” value [1] was “greater rate of cell amplification; also recorded: enhances or increases the rate of cell amplification” and the “sturdiness of cells, proneness to lysis” value (differentiating hPSCs) was “sturdier and less prone to lysis; also recorded: more “sturdy” and less prone lysis”.

`O=C1Nc2cc(Br)ccc2/C1=C1/Nc2ccccc2/C1=N\O` [BiO] was tested, and the “cell amplification, combination of GSK3β inhibitor and IBMX” value [1] was “does not have this effect”.

B1: Activin A: cytokine added at 5 ng/ml in the early stage of differentiation (protein, UniProt P08476 311-426, looked up)
Inhibin beta A chain: GLECDGKVNICCKKQFFVSFKDIGWNDWIIAPSGYHANYCEGECPSHIAGTSGSSLSFHSTVINHYRMRGHSPFANLKSCCVPTKLRPMSMLYYDDGQNIIKKDIQNMIVEECGCS
In the case of B1, the “requirement for efficient differentiation” value (iPSC; iPSC) is reported as “required for efficient differentiation”, the “differentiation efficiency in the absence of Activin A” value (iPSC; iPSC G cell line) is reported as “markedly hinders the differentiation efficiency” and the “effect of an increased dose on differentiation” value ([1]; data not shown) is reported as “doesn't have any beneficial effect”. The “differentiation efficiency in the absence of Activin A” value (RC9) was “markedly hinders the differentiation efficiency”.
